Results taken from patent US20040091855A1, “Method for production of antivirals by use of HIV-derived HR1 peptides, and trimers formed therefrom” (priority 2002, published 2004).

What was measured:
[1] = system: trimers (SEQ ID NO:36) and labeled HR2 peptide (SEQ ID NO:33); assay: Fluorescence polarization assay of inhibition of complexing between trimers and labeled HR2 peptide; format: binding, HIV-1; conditions: read-out: Concentration to inhibit complexing between the trimers and labeled HR2 peptide by 50% (IC50); fluorescein-labeled HR2 peptide 0.2 nM; trimers SEQ ID NO:36 50 nM
Method: In an example of a homogenous assay carried out as a liquid phase-based assay system, a fluorescence polarization assay was used in taking advantage of the high affinity interaction between HR1 and HR2 regions. Into reaction wells of a high throughput plate (>300 reaction wells) was added 20 μl of a solution containing a desired concentration of molecule to be assessed for its ability to bind to trimers employed with the present invention (e.g., formed from synthetic peptide) and either inhibit or disrupt HR1-HR2 binding interactions (“complexing between HR1 and HR2″). […] To each reaction well was then added 10 μl of a solution containing a desired concentration of trimers (formed from synthetic peptide employed with the present invention). […] Fluorescence intensity of polarized light was then measured with a detection system comprising a spectrophotometer, and the amount of polarized light was calculated using standard software in the art. In this example of the method according to the present invention, molecules assessed for ability to inhibit or disrupt complexing between trimers and a labeled HR2 peptide (e.g., SEQ ID NO:33) comprised either of two HR2 peptides.

[2] = system: HIV-1; conditions: in vitro infectivity assay
Source text: These assays score for reduction of infectious virus titer employing the indicator cell lines MAGI or the CCR5 expressing derivative cMAGI. Both cell lines exploit the ability of HIV-1 tat to transactivate the expression of a β-galactosidase reporter gene driven by the HIV-LTR. The β-gal reporter has been modified to localize in the nucleus and can be detected with the X-gal substrate as intense nuclear staining within a few days of infection. The number of stained nuclei can thus be interpreted as equal to the number of infectious virions in the challenge inoculum if there is only one round of infection prior to staining. […] The cells were cultured for 2 more days, and then fixed and stained with the X-gal substrate to detect HIV-infected cells. The number of infected cells for each control and peptide dilution was determined with the CCD-imager, and then the IC50 and IC90 were calculated (expressed in μg/ml).

Substance: HR2 peptide A: HR2 peptide, derived from the HR2 region of HIV-1 gp41; also used labeled as binding partner (WMEWDREINNYTSLIHSLIEESQNQQEKNEQELLEL)
- IC50 [1]: 68 nM
- Antiviral activity against HIV-1 IC50 [2]: 0.002 µg/mL
- Antiviral activity against HIV-1 IC90 [2]: 0.072 µg/mL
